Measurements: patent US12240857B2 (priority 2017, dated 2025)
Read-outs that look alike come from different tables or passages of the source.

What was measured:
[1] = system: EBOV mucin-domain-deleted glycoprotein pseudotyped VSV; test: microbe, parasite or virus in culture; type: cell-based, Zaire ebolavirus; details: Zaire ebolavirus, Vero, read-out: EC50 EBOV
[2] = system: BDBV mucin-domain-deleted glycoprotein pseudotyped VSV; test: microbe, parasite or virus in culture; type: cell-based, Bundibugyo ebolavirus; details: Vesicular stomatitis virus, Vero, read-out: EC50 BDBV
[3] = in vitro; details: African green monkey, CC50

SMILES | EC50 [1] [µM] | EC50 [2] [µM] | CC50 [3] [µM] | EC50 ([1]; 24 h) [µM] | EC50 ([2]; 24 h) [µM]
CC1CCN(C[C@H](O)COCC23CC4CC(C2)CC(c2ccccc2)(C4)C3)CC1 [Example C10, (2S)-1-(4-methylpiperidin-1-yl)-3-[(3-phenyladamantan-1-yl)methoxy]propan-2-ol] | 0.19 | 0.17 | 3.6 |  | 
CC1CCN(C[C@@H](O)COCC23CC4CC(C2)CC(c2ccccc2)(C4)C3)CC1 [Example C11, (2R)-1-(4-methylpiperidin-1-yl)-3-[(3-phenyladamantan-1-yl)methoxy]propan-2-ol] | 0.18 | 0.11 | 3.6 |  | 
CC1CCN(C[C@H](O)COCCC23CC4CC(C2)CC(c2ccccc2)(C4)C3)CC1 [Example C12, (2S)-1-(4-methylpiperidin-1-yl)-3-[2-(3-phenyladamantan-1-yl)ethoxy]propan-2-ol] | 0.27 | 0.19 | 1.2 |  | 
CC1CCN(C[C@@H](O)COCCC23CC4CC(C2)CC(c2ccccc2)(C4)C3)CC1 [Example C13, (2R)-1-(4-methylpiperidin-1-yl)-3-[2-(3-phenyladamantan-1-yl)ethoxy]propan-2-ol] | 0.17 | 0.11 | 3.6 |  | 
O=C(NC1CCNCC1)c1ccc(NCC23CC4CC(C2)CC(c2ccccc2)(C4)C3)nc1 [Example C14, 6-{[(3-phenyladamantan-1-yl)methyl]amino}-N-(piperidin-4-yl)pyridine-3-carboxamide] | > 1 | 1 | 3.9 |  | 
c1ccc(C23CC4CC(CC(CNc5ccc(CN6CCCCC6)cn5)(C4)C2)C3)cc1 [Example C15, N-[(3-phenyladamantan-1-yl)methyl]-5-(piperidin-1-ylmethyl)pyridin-2-amine] | > 1 | 0.98 | 3.9 |  | 
NCc1ccc(NCC23CC4CC(C2)CC(c2ccccc2)(C4)C3)nc1 [Example C16, 5-(aminomethyl)-N-[(3-phenyladamantan-1-yl)methyl]pyridin-2-amine] | 0.98 | 0.75 | 8 |  | 
CC1CCN(C[C@H](O)COc2ccc(C34CC5CC(CC(c6ccccc6)(C5)C3)C4)cc2)CC1 [Example C18, (2S)-1-(4-methylpiperidin-1-yl)-3-[4-(3-phenyladamantan-1-yl)phenoxy]propan-2-ol] | 0.08 | 0.26 | 2.7 |  | 
CCC12CC3CC(C1)CC(c1ccc(OC[C@@H](O)CN4CCC(C)CC4)cc1)(C3)C2 [Example C19, (S)-1-(4-(−3-ethyladamantan-1-yl)phenoxy)-3-(4-methylpiperidin-1-yl)propan-2-ol] | 0.11 | 0.2 | > 100 |  | 
Cc1ccc(C23CC4CC(CC(CN5CCCCC5)(C4)C2)C3)cc1 [Example D1] |  |  | > 10 | 1.3 | 0.61
COc1ccc(CNCCC23CC4CC(CC(C4)C2)C3)cc1 [Example D4, [2-(adamantan-1-yl)ethyl][(4-methoxyphenyl)methyl]amine] |  |  | > 10 | 2.19 | 2.72
CCOCCN1CCN(CC23CC4CC(CC(C4)C2)C3)CC1 [Example D5, 1-(adamantan-1-ylmethyl)-4-(2-ethoxyethyl)piperazine] |  |  | > 10 | 4.6 | 1.8
CC1CCN(CC(O)COCCC23CC4CC(CC(C4)C2)C3)CC1 (stereo not drawn) [Example D10, 1-[2-(adamantan-1-yl)ethoxy]-3-(4-methylpiperidin-1-yl) propan-2-ol] |  |  | 15.5 | 0.32 | 0.14
CC1CCCCN1CC(O)COCCC12CC3CC(CC(C3)C1)C2 (stereo not drawn) [Example D11, 1-[2-(adamantan-1-yl)ethoxy]-3-(2-methylpiperidin-1-yl)propan-2-ol] |  |  | 7.5 | 0.44 | 0.19
CCN(CC(O)COCCC12CC3CC(CC(C3)C1)C2)C1CCCCC1 (stereo not drawn) [Example D12, N-{3-[2-(adamantan-1-yl)ethoxy]-2-hydroxypropyl}-N-ethylcyclo hexanamine] |  |  | > 3 | 0.61 | 0.49
CC(C)(C)NCC(O)COCCC12CC3CC(CC(C3)C1)C2 (stereo not drawn) [Example D13, {3-[2-(adamantan-1-yl)ethoxy]-2-hydroxypropyl}(tert-butyl)amine] |  |  | > 10 | 0.63 | 0.67
OC(COCCC12CC3CC(CC(C3)C1)C2)CN1CCOCC1 (stereo not drawn) [Example D16, 1-[2-(adamantan-1-yl)ethoxy]-3-(morpholin-4-yl)propan-2-ol] |  |  | > 10 | 3.8 | 3.2
CC1CCN(C[C@H](O)COc2ccc(C34CC5CC(CC(C5)C3)C4)cc2)CC1 [Example D22, (2S)-1[4-(adamantan-1-yl)phenoxy]-3-(4-methylpiperidin-1-yl)propan-2-ol] |  |  | 8.5 | 0.052 | 0.085
CC1CCN(C[C@@H](O)COc2ccc(C34CC5CC(CC(C5)C3)C4)cc2)CC1 [Example D23, (2R)-1-[4-(adamantan-1-yl)phenoxy]-3-(4-methylpiperidin-1-yl)propan-2-ol] |  |  | 3.9 | 0.06 | 0.077

SMILES | EC50 [1] [µM] | EC50 [2] [µM] | CC50 [3] [µM] | EC50 ([1]; 24 h) [µM] | EC50 ([2]; 24 h) [µM]
CCN1CCN(CC(O)COc2ccc(C34CC5CC(CC(C5)C3)C4)cc2)CC1 (stereo not drawn) [Example D25, 1-[4-(adamantan-1-yl)phenoxy]-3-(4-ethylpiperazin-1-yl)propan-2-ol] |  |  | 3.1 | 0.09 | 0.24
CN1CCN(C[C@H](O)COc2ccc(C34CC5CC(CC(C5)C3)C4)cc2)CC1 [Example D27] |  |  | 3.5 | 0.13 | 0.19
CN1CCN(CC(O)COc2ccc(C34CC5CC(CC(C5)C3)C4)cc2)CC1 (stereo not drawn) [Example D28, 1-[4-(adamantan-1-yl)phenoxy]-3-(4-methylpiperazin-1-yl)propan-2-ol] |  |  | 4.2 | 0.15 | 0.21
NCCOc1ccc(C23CC4CC(CC(C4)C2)C3)cc1 [Example D34, 1-[4-(2-aminoethoxy)phenyl] adamantane] |  |  | 3.7 | 0.43 | 1.16
Nc1ccc(C23CC4CC(CC(C4)C2)C3)cc1 [Example D36, 4-(adamantan-1-yl)aniline] |  |  | > 10 | 4.2 | 6.2
CC12CC3CC(C)(C1)CC(c1ccc(OC[C@@H](O)CN4CCCCC4)cc1)(C3)C2 [Example D39, (2S)-1-[4-(3,5-dimethyladamantan-1-yl)phenoxy]-3-(piperidin-1-yl) propan-2-ol] |  |  | 3.2 | 0.12 | 0.25
CC1CCN(C[C@H](O)COc2ccc(C34CC5CC(C)(CC(C)(C5)C3)C4)cc2)CC1 [Example D40, (2S)-1-[4-(3,5-dimethyladamantan-1-yl)phenoxy]-3-(4-methylpiperidin-1-yl)propan-2-ol] |  |  | 2.5 | 0.19 | 0.46
O=C(NCCC12CC3CC(CC(C3)C1)C2)c1ccc(CN2CCOCC2)cc1 [Example D41, N-[2-(adamantan-1-yl)ethyl]-4-(morpholin-4-ylmethyl)benzamide] |  |  | > 3 | 2.3 | 9.7
CC(NC(=O)Cn1ccc(C(F)(F)F)n1)C12CC3CC(CC(C3)C1)C2 (stereo not drawn) [Example D44, N[1-(adamantan-1-yl)ethyl]-2-[3-(trifluoromethyl)-1H-pyrazol-1-yl] acetamide] |  |  | > 10 | 5.8 | 2.7
CC(NC(=O)NCC(C)(C)N1CCOCC1)C12CC3CC(CC(C3)C1)C2 (stereo not drawn) [Example D45, 1-[1-(adamantan-1-yl)ethyl]-3-[2-methyl-2-(morpholin-4-yl)propyl]urea] |  |  | > 10 | 6.5 | 4.6
CN(C)C1CCCN(C(=O)NCC23CC4CC(CC(C4)C2)C3)C1 (stereo not drawn) [Example D46, N-(adamantan-1-ylmethyl)-3-(dimethylamino)piperidine-1-carboxamide] |  |  | > 10 | 6.7 | 4.3
CC(NC(=O)Cn1nnc(-c2ccco2)n1)C12CC3CC(CC(C3)C1)C2 (stereo not drawn) [Example D47, N-[1-(adamantan-1-yl)ethyl]-2-[5-(furan-2-yl)-2H-1,2,3,4-tetrazol-2-yl]acetamide] |  |  | > 10 | 9.3 | 5.4
O=C(NC1CCNCC1)NC12CC3CC(C1)CC(c1ccccc1)(C3)C2 [Example E1, 3-(3-phenyladamantan-1-yl)-1-(piperidin-4-yl)urea] | > 1 | 0.77 | 18.3 |  | 
N[C@H]1CC[C@H](NC(=O)NC23CC4CC(C2)CC(c2ccccc2)(C4)C3)CC1 [Example E2, 1-(4-aminocyclohexyl)-3-(3-phenyladamantan-1-yl)urea] | 0.87 | 0.61 | 12.6 |  | 
O=C(NC12CC3CC(C1)CC(c1ccccc1)(C3)C2)C1CCNCC1 [Example E3, N-(3-phenyladamantan-1-yl)piperidine-4-carboxamide] | > 1 | 0.27 | 36.3 |  | 
O=C(CC1CCNCC1)NC12CC3CC(C1)CC(c1ccccc1)(C3)C2 [Example E4, N-(3-phenyladamantan-1-yl)-2-(piperidin-4-yl)acetamide] | 1.08 | 0.79 | 23.1 |  | 
N[C@H]1CC[C@H](C(=O)NC23CC4CC(C2)CC(c2ccccc2)(C4)C3)CC1 [Example E5, trans-4-amino-N-(3-phenyladamantan-1-yl)cyclohexane-1-carboxamide] | 0.68 | 0.23 | 13.3 |  | 
O=C(NCC12CC3CC(C1)CC(c1ccccc1)(C3)C2)C1CCNCC1 [Example E6, N-[(3-phenyladamantan-1-yl)methyl]piperidine-4-carboxamide] | 0.71 | 0.2 | 11.9 |  | 
